Measured values taken from patent US9622996B2, “Use of adrenergic beta-E-receptor blockers in cancer treatment” (priority 2012, dated 2017).

What was measured:
[1] = tested on: rat myocardial infarction models; test: Rat myocardial infarction (heart failure) model, ligation of left coronary artery; assay type: in vivo; details: 1 mg/kg/day intraperitoneal, 4 weeks
Description: In rat myocardial infarction models, activation of the β-3 receptor could increase level of SIRT1 in cardiomyocyte, inhibit expression of p53, improve the cardiac function and achieve anti-apoptosis effect. The myocardial infarction model was created by ligation of anterior descending branch of rat left coronary artery. BRL37344 was intraperitoneally injected at 1 mg/kg/day, and heart B-ultrasonography was performed after 4 weeks. Heart tissue was determined for apoptosis (tunel method) and expression levels of SIRT1 and p53 (western blot). The ratio of left ventricular weight to body weight (LVW/BW) is determined. It can be seen from the results shown in FIGS. 3 to 5, that BRL37344 decreases p53 expression, cardiac cell apoptosis, and value of LVW/BW of heart failure rat, increases SIRT1 expression, alleviate cardiac hypertrophy and improve cardiac function.

[2] = tested on: adipose-derived stem cells of rats; test: β-Galactosidase staining of adipose-derived stem cells; assay type: cell-based, rat; details: 10^−7M, 24 h, compared with SR59230A
Description: Blockage of the β-3 receptor could increase level of β-galactosidase in adipose-derived stem cells and promote stem cell aging. BRL37344 and SR59230A were used to treat adipose-derived stem cells of rats each at 10^−7M. After 24 h, cells were fixed using paraformaldehyde, and stained and photographed according to the specification of β-Galactosidase Staining Kit. BRL37344 decreased the level of β-galactosidase in adipose-derived stem cells when compared with SR59230A, indicating agonisting of adrenergic β3 receptors of adipose-derived stem cells achieves anti-aging effect.

[3] = tested on: rat cardiomyocyte; test: Western blot of mTOR and Rictor proteins (mTOR/Rictor complex); assay type: cell-based; details: 10^−7M, 24 h, compared to the control shRNA
Description: Activation of the β3 receptor could increase mTOR/Rictor complex in MCF-7 cells. shRNA of β3 adrenergic receptor, control shRNA, BRL37344 and SR59230A were used to treat rat cardiomyocyte each at 10^−7M. After 24 h, total protein was extracted and subjected to western blot to determine the expression amount of mTOR and Rictor proteins.

[4] = tested on: cardiac fibroblast of rats; test: mTOR/α-Tubulin and Rictor/α-Tubulin double staining in cardiac fibroblast; assay type: cell-based, rat; details: 10^−7M, confocal microscope
Description: Beta-3 receptor promoted binding of mTORC2 to α-Tubulin in spindle apparatus. BRL37344 was used to treat cardiac fibroblast of rats at 10^−7M. The cells were undergone mTOR/α-Tubulin immunohistochemical double staining and Rictor/α-Tubulin immunohistochemical double staining, and observed under confocal microscope.

[5] = tested on: multidrug resistance-associated protein 1 (MRP1); test: 5-CFDA (MRP1 substrate) efflux staining in PC-3 cells; assay type: cell-based, Human; details: PC-3, 10^−7M, 18 h, confocal microscopy
Description: Beta-3 receptor activated multidrug resistance-associated protein 1 (MRP1). Human prostatic cancer cells PC-3 was used to be treated with SR59230A and BRL37344, each at 10^−7M, for 18 h and then stained with substrate of MRP1, 5-CFDA and observed under confocal microscopy.

[6] = tested on: HL-60 leukaemia cells; test: miR-16-1/miR-15a expression, apoptosis and mitochondrial readouts in HL-60 cells; assay type: cell-based; details: HL-60, 10^−7M
Description: (§1) SR59230A promoted cell apoptosis by increase expression of miR-16-1 and miR-15a in HL-60 and K562 leukaemia cells. SR59230A at 10^−7M was used to treat HL-60 and K562 leukaemia cells. 8 h following the treatment, total microRNA was extract and then reversely transcribed for quantitative PCR to determine the expression of miR-16-1 and miR-15a. Flow cytometry was used to detect earlier cell apoptosis label Annexin V/PI and apoptosis rate. MitoTracker Red CMXRos was used to detect number of mitochondrion. JC1 was used to determine mitochondrial membrane potential. Autophagosome was determined by monodansylcadaverine (MDC) staining, and observed and countered under transmission electron microscope. Intracellular ATP level was determined by ATP Kit. […] SR59230A could decrease mitochondrial membrane potential of HL-60 and K562 cells, induce mitophagy, decrease mitochondrial content and reduce intracellular ATP level.

[7] = tested on: H1299 lung cancer cells; test: Apoptosis of H1299 lung cancer cells; assay type: cell-based
Description: (§2) A target sequence was selected from the DNA sequence of β3AR gene using computer program. The DNA fragment of the target sequence was synthesized and cloned on a vector. Human U6 promoter was cloned to pcDNA3/neo vector to clone DNA fragment of shRNA. The plasmid vector was tranfected into cells using lipofection2000. 48 h following the tranfection, siRNA was expressed in the cells. The cells were subjected to Annexin V/PI double staining. Apoptosis rate was determined by flow cytometry.

[8] = tested on: MCF-7 cells; test: Western blot of p53 and SIRT1 in MCF-7 cells treated with SR59230A; assay type: cell-based; details: 24 h, with increasing SR59230A concentration
Description: MCF-7 cells were treated with SR59230A at different concentrations. After 24 h, the cells were lysed to extract total protein. The protein concentration was determined by BCA method. 10 μg of the protein was used to perform 10% SDS PAGE, and then transferred to a PVDF membrane. The membrane was blocked for 1 h with TBST (10 mmol/L Tris HCl, pH 7.5, 150 mmol/L NaCl, 0.1% Tween 20) containing 4% fat-free milk, and incubated overnight with p53 antibody (1:1000) and SIRT1 antibody (1:1000) at 4° C. The membrane was further incubated with secondary antibodies for 1 h after washing, followed by ECL color development. The same procedure was repeated 3 times. The gray values of protein bands were obtained through Fluorchem 8900 software and the ratio of target band to reference band (GAPDH) was calculated. Results are shown in FIGS. 1 and 2, wherein the expression level of p53 was increased as the increase of SR59230A concentration, while SIRT1 was decreased.

[9] = tested on: MCF7 cells; test: Mitochondrial autophagy in MCF7 cells (MitoTracker, LC3II Western blot); assay type: cell-based; details: MCF7, 10^−7M, 18 h
Description: β3 receptor regulated mitochondrial autophagy. MCF7 cells were treated by SR59230A (10^−7M) for 18 h. MitoTracker was used to label mitochondrion at 37° C. for 20 min. The cells were washed with PBS for 3 times and fluorescent detection was then carried out by fluorescent confocal microscopy and flow cytometry. The autophagy labeling protein LC3II was measured by Western blot.

[10] = tested on: H1975 lung cancer cells; test: Apoptosis of H1975 lung cancer cells; assay type: cell-based
Description: as §2

[11] = tested on: K562 leukaemia cells; test: miR-16-1/miR-15a expression, apoptosis and mitochondrial readouts in K562 cells; assay type: cell-based; details: K562, 10^−7M
Description: as §1

[12] = tested on: MCF-7 breast carcinoma cells; test: Annexin V/PI flow cytometry, apoptosis and cell cycle of MCF-7 cells; assay type: cell-based; details: P<0.01
Description: as §2

[13] = tested on: MCF-7 implant tumor; test: MCF-7 implant tumor model in nude mice; assay type: in vivo
Description: SR59230A reduced implant tumor volume in MCF-7 nude mice. 10^7 of MCF-7 cells were subcutaneously injected into 5-week old female nude mice to establish implant tumor model. 10 days followed the injection, tumor volume increased to about 250 mm^3. The mice were randomly divided into two groups with each group having 8 mice. The treatment group was peritoneally injected with SR56230A at 100 nmol for each mouse. The injection was carried every two days and lasted for 5 weeks. The control group is administrated with solvents with same volume. The length, width and height of tumors were determined using a vernier caliper prior to each administration, so as to calculate tumor volume. The tumor growth curve was shown in FIG. 8, in which SR59230A treated mice had slower implant tumor growth rat when compared to control group (FIG. 9). […] In order to determine expression levels of phospho-4E-BP1(Thr37/46) and p62, the tumor tissue was obtained for paraffin embedding and section and then immunohistochemistry, and proteins were extracted from the tumor tissue for Western blot.

[14] = tested on: prostatic cancer cells PC-3; test: Autophagy of prostatic cancer cells PC-3 (FIG. 17); assay type: cell-based, Human; details: FIG. 17 legend only
[15] = 8 h, quantitative PCR, compared to control
[16] = Annexin V/PI flow cytometry, P<0.01
[17] = 100 nmol per mouse peritoneally every two days for 5 weeks
[18] = tumor tissue, immunohistochemistry and Western blot

For `C[C@H](Cc1ccc(OCC(=O)O)cc1)NC[C@H](O)c1cccc(Cl)c1` [BRL37344], the cardiac hypertrophy [1] was “alleviate”, the “ratio of left ventricular weight to body weight (LVW/BW)” value [1] was “decreases” and the cardiac function ([1]; heart B-ultrasonography) was “improve”. For the same compound, the cardiac cell apoptosis ([1]; tunel method) was “decreases”, the “SIRT1 expression in heart tissue” value ([1]; western blot) was “increases” and the “p53 expression in heart tissue” value ([1]; western blot) was “decreases”. The “level of β-galactosidase” value [2] was “decreased”, the mTOR/Rictor complex [3] was “increased” and the “binding of Rictor to α-Tubulin” value [4] was “promoted”. For the same compound, the “binding of mTOR to α-Tubulin in spindle apparatus” value [4] was “promoted”.
With `CCc1ccccc1OC[C@@H](O)CN[C@H]1CCCc2ccccc21` [SR59230A] the “5-CFDA efflux (MRP1 substrate)” value [5] was “inhibited”, the mitophagy [6] was “induce” and the “expression of miR-15a” value [6, 15] was “significantly increased”. The “expression of miR-16-1” value [6, 15] was “significantly increased”, the “intracellular ATP level” value ([6]; ATP Kit) was “reduce” and the apoptosis rate [6, 16] was “increased”. The mitochondrial membrane potential ([6]; JC1) was “decrease”, the mitochondrial content ([6]; MitoTracker Red CMXRos) was “decrease” and the “apoptosis of H1299 cells” value [7] was “promoted apoptosis”. The “expression level of SIRT1” value [8] was “decreased”, the “expression level of p53” value [8] was “increased” and the autophagosome [9] was “increased”. For the same compound, the mitochondrion amount ([9]; MitoTracker) was “significantly decreased”, the LC3II expression ([9]; Western blot) was “increased” and the “apoptosis of H1975 cells” value [10] was “promoted apoptosis”. For the same compound, the mitophagy [11] was “induce”, the “expression of miR-15a” value [11, 15] was “significantly increased” and the “expression of miR-16-1” value [11, 15] was “significantly increased”. For the same compound, the “intracellular ATP level” value ([11]; ATP Kit) was “reduce”, the apoptosis rate [11, 16] was “increased” and the mitochondrial membrane potential ([11]; JC1) was “decrease”. For the same compound, the mitochondrial content ([11]; MitoTracker Red CMXRos) was “decrease”, the “apoptosis rate versus control group” value [12] was “significant increase” and the “relative tumor growth rate T/C (%)” value [13, 17] was 39.80%. For the same compound, the tumor inhibition rate [13, 17] was 57.97%, the “tumor volume based on the control group” value [13, 17] was 42.03% and the “implant tumor growth rate compared to control group” value ([13]; 100 nmol per mouse peritoneally every two days for 5 weeks, tumor growth curve) was “slower”. The glycolysis in tumors ([13]; PET/CT detection) was “inhibited”, the “expression of p62” value [13, 18] was “reduced” and the “expression of phospho-4E-BP1” value [13, 18] was “reduced”. The “mTOR activity in tumors” value [13, 18] was “inhibited”, the “mitophagy in tumor cells” value ([13]; tumor tissue, transmission electron microscope) was “enhanced” and the “autophagy of prostatic cancer cells PC-3” value [14] was “increased”.
